Results from article PMC3700404 (Chemistry & biology, 2008).

What was measured:
[1] = biological target: T1, hCB2 C6.47(257)A mutant receptor (Homo sapiens, UniProt P34972, C257A); assay: Affinity-labeling assay, hCB2 C6.47; conditions: 9 nM AM-841, 1 hr, 30°C, washed
[2] = biological target: T2, hCB2 C6.47(257)S mutant receptor (Homo sapiens, UniProt P34972, C257S); assay: Inhibition of forskolin-stimulated cAMP accumulation, hCB2 C6.47; assay type: cell-based; conditions: read-out: IC50, inhibition of forskolin-stimulated cAMP accumulation; HEK293 cells, 5 μM forskolin, 5 min; mean (95% CI)
T2 sequence (P34972 whole entry C257S): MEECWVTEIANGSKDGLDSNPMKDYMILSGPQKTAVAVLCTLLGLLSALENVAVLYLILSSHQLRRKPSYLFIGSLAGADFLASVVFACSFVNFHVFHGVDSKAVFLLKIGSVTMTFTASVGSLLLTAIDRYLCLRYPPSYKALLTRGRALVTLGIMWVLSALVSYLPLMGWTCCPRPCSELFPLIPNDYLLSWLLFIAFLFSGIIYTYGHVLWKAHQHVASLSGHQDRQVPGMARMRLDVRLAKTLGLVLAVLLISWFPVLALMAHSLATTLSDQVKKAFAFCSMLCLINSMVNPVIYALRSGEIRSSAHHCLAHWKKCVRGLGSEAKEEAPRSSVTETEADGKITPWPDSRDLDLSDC

[3] = tested on: C6.47(257)K, C6.47(257)I, C6.47(257)L, C6.47(257)D, and C6.47(257)Y hCB2 receptor mutants; assay: Competitive binding assay, further C6.47; set-up: species or system human; conditions: radioligand [3H]-CP55940; data not shown
[4] = biological target: hCB2 K3.28(109)A mutant receptor (Homo sapiens, UniProt P34972, K109A); assay: Competitive binding assay, hCB2 K3.28; conditions: radioligand [3H]-CP55940; mean (95% CI)
hCB2 K3.28(109)A mutant receptor, sequence (P34972 whole entry K109A): as the sequence (P34972 whole entry C257S) above, with K109A, S257C counted along it

WT hCB2 receptor [5] = biological target: T3, WT hCB2 receptor (Homo sapiens, UniProt P34972); assay: Affinity-labeling assay
T3 sequence (P34972 whole entry): as the sequence (P34972 whole entry C257S) above, with S257C counted along it

[6] = biological target: hCB2 C7.42(288)S mutant receptor (Homo sapiens, UniProt P34972, C288S); assay: Affinity-labeling assay, hCB2 C7.42; conditions: 9 nM AM-841, 1 hr, 30°C, washed
hCB2 C7.42(288)S mutant receptor, sequence (P34972 whole entry C288S): as the sequence (P34972 whole entry C257S) above, with S257C, C288S counted along it

[7] = biological target: hCB1 K3.28(192)A mutant receptor (Homo sapiens, UniProt P21554, K192A); assay: Competitive binding assay, hCB1 K3.28; conditions: radioligand [3H]-CP55940
hCB1 K3.28(192)A mutant receptor, sequence (P21554 whole entry K192A): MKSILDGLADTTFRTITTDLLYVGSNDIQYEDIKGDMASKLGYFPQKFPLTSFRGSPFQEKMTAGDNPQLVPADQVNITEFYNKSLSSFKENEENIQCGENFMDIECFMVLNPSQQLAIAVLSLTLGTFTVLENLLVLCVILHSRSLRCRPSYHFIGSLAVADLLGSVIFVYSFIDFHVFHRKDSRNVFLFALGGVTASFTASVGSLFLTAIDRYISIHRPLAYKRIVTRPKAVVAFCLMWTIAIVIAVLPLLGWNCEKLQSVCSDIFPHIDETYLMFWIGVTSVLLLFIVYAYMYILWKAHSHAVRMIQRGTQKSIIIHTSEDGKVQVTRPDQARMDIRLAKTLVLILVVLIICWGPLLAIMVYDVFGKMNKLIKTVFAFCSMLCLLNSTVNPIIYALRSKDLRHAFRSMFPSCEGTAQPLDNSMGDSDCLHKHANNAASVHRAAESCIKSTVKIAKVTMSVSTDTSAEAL

[8] = biological target: T2, hCB2 C6.47(257)S mutant receptor; assay: Competitive binding assay, hCB2 C6.47; conditions: for Ki: mean (95% CI); for increase in affinity over WT hCB2 receptor: C6.47(257)S vs WT
[9] = biological target: T2, hCB2 C6.47(257)S mutant receptor; assay: Affinity-labeling assay, hCB2 C6.47; conditions: 9 nM AM-841, 1 hr, 30°C, washed
[10] = biological target: hCB2 C7.38(284)S mutant receptor (Homo sapiens, UniProt P34972, C284S); assay: Affinity-labeling assay, hCB2 C7.38; conditions: 9 nM AM-841, 1 hr, 30°C, washed
hCB2 C7.38(284)S mutant receptor, sequence (P34972 whole entry C284S): as the sequence (P34972 whole entry C257S) above, with S257C, C284S counted along it

[11] = biological target: T1, hCB2 C6.47(257)A mutant receptor; assay: Competitive binding assay, hCB2 C6.47; conditions: for enhancement of ability to displace CP55940 versus WT hCB2 / increase in affinity over WT hCB2 receptor: C6.47(257)A vs WT; for Ki: mean (95% CI)
[12] = biological target: T1, hCB2 C6.47(257)A mutant receptor; assay: Inhibition of forskolin-stimulated cAMP accumulation, hCB2 C6.47; assay type: cell-based; conditions: read-out: IC50, inhibition of forskolin-stimulated cAMP accumulation; HEK293 cells, 5 μM forskolin, 5 min; mean (95% CI)
WT hCB2 receptor [13] = biological target: T3, WT hCB2 receptor; assay: Inhibition of forskolin-stimulated cAMP accumulation, WT hCB2 cells; assay type: cell-based; conditions: read-out: IC50, inhibition of forskolin-stimulated cAMP accumulation; HEK293 cells, 5 μM forskolin, 5 min; mean (95% CI)
[14] = tested on: CB2 receptor S7.39A mutant; conditions: ref Rhee (2002); cited from earlier work
[15] = tested on: C6.47(257)K, C6.47(257)I, C6.47(257)L, C6.47(257)D or C6.47(257)Y mutant hCB2 receptors; assay: Saturation-binding assay, further C6.47; set-up: species or system human; conditions: data not shown

T1 sequence (P34972 whole entry C257A): as the sequence (P34972 whole entry C257S) above, with S257A counted along it

| SMILES | IC50 [2] | Ki [4] | Ki [7] | Ki ([8]; radioligand [3H]-CP55940) | increase in affinity over WT hCB2 receptor ([8]; radioligand [3H]-WIN55212-2) | Ki ([8]; radioligand [3H]-WIN55212-2) | enhancement of ability to displace CP55940 versus WT hCB2 ([11]; radioligand [3H]-CP55940) | Ki ([11]; radioligand [3H]-CP55940) | increase in affinity over WT hCB2 receptor ([11]; radioligand [3H]-WIN55212-2) | Ki ([11]; radioligand [3H]-WIN55212-2) | IC50 [12] | IC50 (WT hCB2 receptor [13]) | also measured |
| --- | --- | --- | --- | --- | --- | --- | --- | --- | --- | --- | --- | --- | --- |
| CC(C)(CCCCCCN=C=S)c1cc(O)c2c(c1)OC(C)(C)C1CCC(CO)CC21 (single isomer, unassigned; (-)) [AM-841, (−)-7′-isothiocyanato-11-hydroxy-1′,1′-di-methylheptylhexahydrocannabinol] | 2.88 nM | 2.31 nM | No Specific Binding | 1.68 nM | 3–6 fold | 1.5 nM | at least 2 fold | 0.71 nM | 3–6 fold | 0.7 nM | 6.01 nM | 0.079 nM | decrease in [3H]-CP55940 Bmax after AM-841 pretreatment [1]: no distinct decrease; specific binding in competitive binding assay [3]: no specific binding; Bmax for [3H]-CP55940 binding after preincubation (WT hCB2 receptor [5]; 9 nM AM-841, 1 hr, 30°C, then extensive wash-out, control membranes 1.05): 0.22 pmol/mg; decrease in [3H]-CP55940 binding after AM-841 pretreatment (WT hCB2 receptor [5]; 9 nM AM-841, 1 hr, 30°C, washed): ~ 80%; irreversible AM-841 binding (WT hCB2 receptor [5]; data not shown): ~ 80%; decrease in [3H]-CP55940 binding after AM-841 pretreatment [6]: ~ 80%; decrease in [3H]-CP55940 Bmax after AM-841 pretreatment [9]: no distinct decrease; decrease in [3H]-CP55940 binding after AM-841 pretreatment [10]: ~ 80% |
| CCCCCCC(C)(C)c1cc(O)c2c(c1)OC(C)(C)[C@@H]1CC[C@@H](CO)C[C@@H]21 [HU-243] |  |  |  |  |  |  |  |  |  |  |  |  | loss of affinity in S7.39A mutant [14]: over 10 fold |
| CCCCCCC(C)(C)c1cc(O)c2c(c1)OC(C)(C)[C@@H]1CC[C@@H](CO)C[C@@H]21 [AM-4056] | 8.82 nM | 1.14 nM | No Specific Binding | 1.52 nM |  | 1.2 nM | at least 2 fold | 1.03 nM |  | 0.5 nM | 2.62 nM | 3.27 nM |  |
| CN1CCCCC1Cn1cc(C(=O)c2ccccc2I)c2ccccc21 (centres unmarked) [AM-2233] |  |  |  |  | over 11 fold | 0.8 nM |  |  | over 11 fold | 0.5 nM |  |  |  |
| CCCCCCC(C)(C)c1ccc([C@@H]2C[C@H](O)CC[C@H]2CCCO)c(O)c1 [[^3H]-CP55940] |  |  |  |  |  |  |  |  |  |  |  |  | specific binding of radioligand [15]: no specific binding |
| CC(C)(CCCCCCBr)c1cc(O)c2c(c1)OC(C)(C)C1CCC(CO)CC21 (centres unmarked) [AM-4043] |  |  |  | 1.51 nM |  | 1.4 nM | at least 2 fold | 0.88 nM |  | 0.8 nM |  |  |  |
